This is an account of results in patent US12697335B2, “Method for treating immune toxicities induced by immune checkpoint inhibitors” (ASSISTANCE PUBLIQUE—HÔPITAUX DE PARIS, priority 2020, dated 2026).

The conditions of data set [1]: human, in vivo; cited from earlier work.
The nature of data set [2]: Eleven ICI patients with irAE treated with ruxolitinib in combination with corticosteroids and abatacept.
Data set [3] can be described thus: Adverse events on nivolumab second-line therapy for metastatic pulmonary adenocarcinoma. Particulars: after 2 treatments with nivolumab (4 weeks after treatment initiation). Type of data set: in vivo, human. The text has this:
Myositis was suspected due to increased creatine kinase levels and confirmed by muscle biopsy. Myocarditis was confirmed with troponin increase, premature ventricular contractions and deterioration of left-ventricular ejection fraction with no signs of acute coronary syndrome on angiogram.

abatacept: the “effect in patients with myotoxicity” value in data set [1] is listed as “positive effect”.

In the case of `N#CC[C@H](C1CCCC1)n1cc(-c2ncnc3[nH]ccc23)cn1` [Ruxolitinib, (3R)-3-Cyclopentyl-3-[4-(7H-pyrrolo[2,3-d]pyrimidin-4-yl)pyrazol-1-yl]propanenitrile], the “deaths not related to irAE (hemorrhagic choc n=1; COVID19 n=2)” value in data set [2] (first 3 months follow-up, 11 patients) was “three”. Further, in data set [2] (first 3 months follow-up, 11 patients, myasthenia like symptoms, hepatitis, thyroiditis), the “evolution of concurrent irAE” value is recorded as “evolved favorably”. Further, the “death related to an irAE” value in data set [2] (human, in vivo) is “no death”. Besides, where the note is “human, in vivo”, the “effect on tumor progression” value is “no effect” and the tumor progression result is recorded as “no evidence of tumor progression”. In addition, the relief of myotoxicity entry (oral ruxolitinib, summary of the case) was “symptomatic relief”. The oculomotor disorders result (person, ruxolitinib 15 mg twice daily) is “improvement”. Also, the troponin result (person, ruxolitinib 15 mg twice daily, corticosteroids tapered) was “prompt decrease”. In addition, the myotoxicity outcome (ruxolitinib continued for 1 month at 15 mg twice daily) is given as “complete resolution”.

Regarding “nivolumab: PD-1 inhibitor: IgG4 PD1 antibody”, the adverse events developed entry in data set [3] was “developed myalgia, diplopia and bilateral ptosis”.
